The test addresses ROCK2 (Homo sapiens (Human), UniProt O75116). Nature of the test: biochemical.

In patent US10112929B2, “Lactams as inhibitors of rock” (BRISTOL-MYERS SQUIBB COMPANY, priority 2015, dated 2018) one finds IC50 data, which are given here for 35 molecules.

pIC50: −log10 of the molar value. Where a name gives a salt, the structure may show the parent alone.
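Note: rho kinase enzyme reaction halted with EDTA, phospho- and non-phospho peptide separated for read-out, kinase activity inhibition derived across a dose-response series, DMSO under 2%.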

Chain of ROCK2 (O75116 whole entry, species assumed): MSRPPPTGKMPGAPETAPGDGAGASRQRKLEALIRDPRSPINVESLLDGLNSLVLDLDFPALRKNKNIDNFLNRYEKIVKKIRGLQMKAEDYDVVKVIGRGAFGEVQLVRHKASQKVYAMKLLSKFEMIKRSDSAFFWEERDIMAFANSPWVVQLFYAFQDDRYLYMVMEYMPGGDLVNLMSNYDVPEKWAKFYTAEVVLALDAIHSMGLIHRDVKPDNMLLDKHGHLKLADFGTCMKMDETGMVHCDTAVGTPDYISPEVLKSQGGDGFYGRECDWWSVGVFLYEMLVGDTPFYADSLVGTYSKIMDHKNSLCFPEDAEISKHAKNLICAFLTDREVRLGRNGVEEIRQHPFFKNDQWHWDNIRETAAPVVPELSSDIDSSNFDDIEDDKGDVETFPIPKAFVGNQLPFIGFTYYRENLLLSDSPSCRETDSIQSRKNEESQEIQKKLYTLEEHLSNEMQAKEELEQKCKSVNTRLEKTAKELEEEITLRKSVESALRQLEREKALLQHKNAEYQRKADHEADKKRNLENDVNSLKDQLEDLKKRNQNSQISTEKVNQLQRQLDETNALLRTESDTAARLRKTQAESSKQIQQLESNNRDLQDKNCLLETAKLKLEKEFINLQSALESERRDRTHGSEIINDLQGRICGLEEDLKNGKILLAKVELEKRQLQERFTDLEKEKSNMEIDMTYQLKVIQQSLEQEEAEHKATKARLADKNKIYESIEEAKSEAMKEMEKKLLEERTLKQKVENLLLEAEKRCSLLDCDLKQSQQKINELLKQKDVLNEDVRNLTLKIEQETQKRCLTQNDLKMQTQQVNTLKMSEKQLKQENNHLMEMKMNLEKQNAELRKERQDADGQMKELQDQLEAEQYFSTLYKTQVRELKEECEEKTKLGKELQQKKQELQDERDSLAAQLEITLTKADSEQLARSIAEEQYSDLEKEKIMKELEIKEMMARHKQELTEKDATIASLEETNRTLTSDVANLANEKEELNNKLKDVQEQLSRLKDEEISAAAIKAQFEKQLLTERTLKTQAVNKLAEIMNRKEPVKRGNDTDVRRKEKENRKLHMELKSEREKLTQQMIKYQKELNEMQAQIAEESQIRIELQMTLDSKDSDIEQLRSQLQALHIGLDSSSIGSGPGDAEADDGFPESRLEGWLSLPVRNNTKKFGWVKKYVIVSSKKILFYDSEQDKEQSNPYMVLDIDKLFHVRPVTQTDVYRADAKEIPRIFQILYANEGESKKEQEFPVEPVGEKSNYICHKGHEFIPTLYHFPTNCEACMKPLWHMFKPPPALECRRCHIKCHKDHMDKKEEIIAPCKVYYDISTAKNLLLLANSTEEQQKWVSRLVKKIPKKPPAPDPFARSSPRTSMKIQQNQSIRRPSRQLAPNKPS

For the molecule `COc1ccc(F)c(OC2CCN(c3ccc(-c4cn[nH]c4)cc3)C2=O)c1` (centres unmarked) [Example 111, 1-(4-(1H-pyrazol-4-yl)phenyl)-3-(2-fluoro-5-methoxyphenoxy)pyrrolidin-2-one], the pIC50 is 7.00 to 8.00. Under `COc1cc(F)cc(NC2CCN(c3ccc(-c4cn[nH]c4)c(Cl)c3)C2=O)c1` (single isomer, unassigned) [Example 158, 1-(3-chloro-4-(1H-pyrazol-4-yl)phenyl)-3 ((3-fluoro-5-methoxyphenyl)amino) pyrrolidin-2-one] stands 5.66 to 7.00.

Molecule `COc1cccc(NC2CCN(c3ccc(-c4cn[nH]c4)c(CO)c3)C2=O)c1` (racemic) [Example 187, 1-(3-(hydroxymethyl)-4-(1H-pyrazol-4-yl)phenyl)-3-((3-methoxyphenyl)amino) pyrrolidin-2-one] had a pIC50 of 5.66 to 7.00. Under `COc1nc(N2CCC(N3CCOc4ccccc43)C2=O)ccc1-c1cn[nH]c1` (single isomer, unassigned) [Example 229, 3-(2H-benzo[b][1,4]oxazin-4(3H)-yl)-1-(6-methoxy-5-(1H-pyrazol-4-yl)pyridin-2-yl)pyrrolidin-2-one] stands 7.00 to 8.00; under `O=C1C(Nc2cccc(OCC3CC3)c2)CCN1c1ccc(-c2cn[nH]c2)c(F)c1` (single isomer, unassigned) [Example 361, 3-((3-(cyclopropylmethoxy)phenyl)amino)-1-(3-fluoro-4-(1H-pyrazol-4-yl)phenyl)pyrrolidin-2-one], > 8.00; under `COc1c(F)cccc1NC1CCN(c2ccc(-c3cn[nH]c3)cc2)C1=O` (single isomer, unassigned) [Example 16, 1-(4-(1H-pyrazol-4-yl)phenyl)-3-((3-fluoro-2-methoxyphenyl)amino)pyrrolidin-2-one], 5.66 to 7.00. For the molecule `O=C1C(Nc2cccc(F)c2F)CCN1c1ccc(-c2cn[nH]c2)cc1` (single isomer, unassigned) [Example 23, 1-(4-(1H-pyrazol-4-yl)phenyl)-3-((2,3-difluorophenyl)amino)pyrrolidin-2-one], the pIC50 is > 8.00. In the case of `COc1cccc(NC2CCN(c3ccc(-c4ccnc5[nH]ccc45)c(C)n3)C2=O)c1` (single isomer, unassigned) [Example 119, 3-((3-methoxyphenyl)amino)-1-(6-methyl-5-(1H-pyrrolo[2,3-b]pyridin-4-yl)pyridin-2-yl)pyrrolidin-2-one] it was 5.66 to 7.00. For `COc1nc(N2CCC(Nc3ccc4c(c3)OCO4)C2=O)ccc1-c1cn[nH]c1` (racemic) [Example 255, 3-(benzo[d][1,3]dioxol-5-ylamino)-1-(6-methoxy-5-(1H-pyrazol-4-yl)pyridin-2-yl)pyrrolidin-2-one], the pIC50 was > 8.00. In the case of `COc1cccc(NC2CCN(c3ncc(-c4cn[nH]c4)c(OC)n3)C2=O)c1` (centres unmarked) [Example 132, 1-(4-Methoxy-5-(1H-pyrazol-4-yl)pyrimidin-2-yl)-3-((3-methoxyphenyl)amino) pyrrolidin-2-one] it was 7.00 to 8.00. `O=C1[C@H](N2CCc3ccccc32)CCN1c1ccc(-c2cn[nH]c2)cc1` [Example 393, (R)-1-(4-(1H-pyrazol-4-yl)phenyl)-3-(indolin-1-yl)pyrrolidin-2-one]: the negative logarithm of the IC50 (pIC50) was 7.00 to 8.00. Under `O=C1C(Oc2ccccc2Cl)CCN1c1ccc(-c2cn[nH]c2)cc1` (centres unmarked) [Example 110, 1-(4-(1H-pyrazol-4-yl)phenyl)-3-(2-chlorophenoxy)pyrrolidin-2-one] stands 7.00 to 8.00; under `COc1cccc2c1N(C1CCN(c3ccc(-c4cn[nH]c4)cc3)C1=O)CC2` (single isomer, unassigned) [Example 52, 1-(4-(1H-pyrazol-4-yl)phenyl)-3-(7-methoxyindolin-1-yl)pyrrolidin-2-one], 5.66 to 7.00. In the case of `O=C1C(Nc2cccc(OCC3CC3)c2)CCN1c1ccc(-c2cn[nH]c2)cc1` (centres unmarked) [Example 11, 1-(4-(1H-pyrazol-4-yl)phenyl)-3-((3-(cyclopropylmethoxy)phenyl)amino)pyrrolidin-2-one] it was > 8.00; in that of `COc1ccc(Cl)c(NC2CCN(c3ccc(-c4cn[nH]c4)c(OC)n3)C2=O)c1` (racemic) [Example 261, 3-((2-chloro-5-methoxyphenyl)amino)-1-(6-methoxy-5-(1H-pyrazol-4-yl)pyridin-2-yl)pyrrolidin-2-one], 7.00 to 8.00. `COc1nc(N2CCC(Nc3ccc(F)c(OCC4CC4)c3)C2=O)ccc1-c1cn[nH]c1` (single isomer, unassigned) [Example 217, 3-((3-(cyclopropylmethoxy)-4-fluorophenyl)amino)-1-(6-methoxy-5-(1H-pyrazol-4-yl)pyridin-2-yl)pyrrolidin-2-one] gave a negative-log IC50 (pIC50) of 7.00 to 8.00. Under `COc1nc(N2CCC(N3CCCC(F)C3)C2=O)ccc1-c1cn[nH]c1` (racemic) [Example 283, 3-(3-fluoropiperidin-1-yl)-1-(6-methoxy-5-(1H-pyrazol-4-yl)pyridin-2-yl)pyrrolidin-2-one hydrochloride] stands 7.00 to 8.00; under `CCc1nc(N2CCC(Nc3ccc(F)c(OC)c3)C2=O)ccc1-c1cn[nH]c1` (single isomer, unassigned) [Example 317, 1-(6-ethyl-5-(1H-pyrazol-4-yl)pyridin-2-yl)-3-((4-fluoro-3-methoxyphenyl)amino) pyrrolidin-2-one], > 8.00; under `COc1cc(N2CCC(Nc3c(F)cccc3OC)C2=O)ccc1-c1cn[nH]c1` (single isomer, unassigned) [Example 135, 3-((2-fluoro-6-methoxyphenyl)amino)-1-(3-methoxy-4-(1H-pyrazol-4-yl)phenyl) pyrrolidin-2-one], 7.00 to 8.00.

As to `COc1cc(NC2CCN(c3ccc(-c4cn[nH]c4)c(OC)c3)C2=O)ccc1F` (single isomer, unassigned) [Example 154, 3-((4-fluoro-3-methoxyphenyl)amino)-1-(3-methoxy-4-(1H-pyrazol-4-yl)phenyl) pyrrolidin-2-one], the pIC50 is 5.66 to 7.00. In the case of `COc1nc(N2CCC(N3CCN(c4ccc(O)cc4)CC3)C2=O)ccc1-c1cn[nH]c1` (racemic) [Example 288, 3-(4-(44iydroxyphenyl)piperazin-1-yl)-1-(6-methoxy-5-(1H-pyrazol-4-yl)pyridin-2-yl)pyrrolidin-2-one] it was 5.66 to 7.00; in that of `COc1nc(N2CCC(N3CCOCC3)C2=O)ccc1-c1cn[nH]c1` (racemic) [Example 273, 1-(6-methoxy-5-(1H-pyrazol-4-yl)pyridin-2-yl)-3-morpholinopyrrolidin-2-one], 7.00 to 8.00. For the molecule `COc1nc(N2CCC(N3CCOC[C@H]3C)C2=O)ccc1-c1cn[nH]c1` (mixture of isomers) [Example 274, 1-(6-methoxy-5-(1H-pyrazol-4-yl)pyridin-2-yl)-3-((R)-3-methylmorpholino) pyrrolidin-2-one], the negative logarithm of the IC50 (pIC50) was 7.00 to 8.00. In the case of `O=C1C(Nc2cccc(OC(F)F)c2)CCN1c1ccc(-c2cn[nH]c2)cc1` (centres unmarked) [Example 7, 1-(4-(1H-pyrazol-4-yl)phenyl)-3-((3-(difluoromethoxy)phenyl)amino)pyrrolidin-2-one] it was > 8.00. In the case of `COCc1cc(N2CCC(Nc3cc(F)cc(OC)c3)C2=O)ccc1-c1cn[nH]c1` (single isomer, unassigned) [Example 185, 3-((3-fluoro-5-methoxyphenyl)amino)-1-(3-(methoxymethyl)-4-(1H-pyrazol-4-yl)phenyl)pyrrolidin-2-one] it was 5.66 to 7.00.

`CCc1nc(N2CCC(Nc3cccc(OC)c3)C2=O)ccc1-c1cn[nH]c1` (single isomer, unassigned) [Example 313, 1-(6-ethyl-5-(1H-pyrazol-4-yl)pyridin-2-yl)-3-((3-methoxyphenyl)amino) pyrrolidin-2-one]: the pIC50 was > 8.00. Under `COc1ccc(C(N)=O)c(NC2CCN(c3ccc(-c4cn[nH]c4)cc3)C2=O)c1` (racemic) [Example 324, 2-((1-(4-(1H-pyrazol-4-yl)phenyl)-2-oxopyrrolidin-3-yl)amino)-4-methoxybenzamide] stands 5.66 to 7.00; under `CC(C)Oc1cccc(NC2CCN(c3ccc(-c4cn[nH]c4)cc3)C2=O)c1` (centres unmarked) [Example 10, 1-(4-(1H-pyrazol-4-yl)phenyl)-3-((3-isopropoxyphenyl)amino)pyrrolidin-2-one], 7.00 to 8.00; under `COc1cccc(NC2CCN(c3ccc(-c4ccnc(N)c4)cc3)C2=O)c1` (single isomer, unassigned) [Example 76, 1-(4-(2-aminopyridin-4-yl)phenyl)-3-((3-methoxyphenyl)amino) pyrrolidin-2-one], 5.66 to 7.00.

Consider `COc1nc(N2CCC(N3CCC(N(C)C)CC3)C2=O)ccc1-c1cn[nH]c1` (racemic) [Example 276, 3-(4-(dimethylamino)piperidin-1-yl)-1-(6-methoxy-5-(1H-pyrazol-4-yl)pyridin-2-yl)pyrrolidin-2-one], for which the pIC50 is 5.66 to 7.00.

In the case of `COc1cccc(NC2CCN(c3ccc(-c4cn[nH]c4)cn3)C2=O)c1` (single isomer, unassigned) [Example 85, 1-(5-(1H-pyrazol-4-yl)pyridin-2-yl)-3-((3-methoxyphenyl)amino)pyrrolidin-2-one], the negative logarithm of the IC50 (pIC50) was > 8.00.

For the molecule `COc1nc(N2CCC(Nc3cccc(S(N)(=O)=O)c3)C2=O)ccc1-c1cn[nH]c1` (racemic) [Example 268, 3-((1-(6-methoxy-5-(1H-pyrazol-4-yl)pyridin-2-yl)-2-oxopyrrolidin-3-yl)amino)benzenesulfonamide], the pIC50 is > 8.00. `COc1ccc(F)c(NC2CCN(c3ccc(-c4cn[nH]c4)c(OC)c3)C2=O)c1` (single isomer, unassigned) [Example 147, 3-((2-fluoro-5-methoxyphenyl)amino)-1-(3-methoxy-4-(1H-pyrazol-4-yl)phenyl) pyrrolidin-2-one] showed a negative logarithm of the IC50 (pIC50) of 7.00 to 8.00. In the case of `COc1nc(N2CCC(N3CC[C@H](NC(C)=O)C3)C2=O)ccc1-c1cn[nH]c1` (mixture of isomers) [Example 294, N-((3S)-1′-(6-methoxy-5-(1H-pyrazol-4-yl)pyridin-2-yl)-2′-oxo-[1,3′-bipyrrolidin]-3-yl)acetamide] it was 5.66 to 7.00; in that of `COc1cc(F)cc(NC2CCN(c3ccc(-c4cn[nH]c4)cc3Cl)C2=O)c1` (single isomer, unassigned) [Example 168, 1-(2-chloro-4-(1H-pyrazol-4-yl)phenyl)-3 ((3-fluoro-5-methoxyphenyl)amino) pyrrolidin-2-one], 5.66 to 7.00.

As a reminder, the pIC50 is the negative decadic logarithm of the IC50, by convention in mol/L. Read a low pIC50 as a large IC50.
